# Columns and labels:
# Caspase-3 and PARP = assay: Cleavage of Caspase-3 and PARP in MM1S; assay type: cell-based, human; conditions: 48 h treatment, data not shown
# Procedure: Single treatment or co-treatment was performed as combined therapy (1 μM) for 72 hours in MM1S cells. […] However, the single treatment of 12d improved about 19% (P=0.0017) and 11% (P=0.0213) growth inhibition comparing with the combination sets of 13+15 (1:1) and pomalidomide+Next-A (1:1), respectively. To further confirm the observed enhancement, the anti-proliferation in response to 12d was studied from 0.3 nM to 3 μM. This single treatment was compared with dual treatment of 13 and 15 to rule out the potential complication derived from cell permeability issue. Degrader 12d lowered the bottom line (minimal proliferation) of curve over 20% although its IC50 was […] consequentially.
# (§1) When the cells reached 90% confluence, they were harvested and plated 1×10^6 cells per well in 6-well plate. After overnight seeding, the cells were treated with a solution of compounds or vehicle in culture medium. The culture medium was removed after treatment and then washed twice with cold PBS. […] Protein concentration was measured by using the Pierce BCA protein assay (Thermo Fisher Scientific). […] The Immunoblot was generated by ChemiDoc MP Imaging Systems (Bio-Rad) and analyzed by Image J software (only available for download online at https://imagej.net/Downloads). […]
# HDAC6 = target: T1, HDAC6 (Homo sapiens, UniProt Q9UBN7); assay: Immunoblot of HDAC6 degradation in MM.1S cells (second generation degraders); assay type: cell-based; conditions: 6 nM
# T1 construct: endogenous in cells; host or cells: MM1S (ATCC CRL-2974)
# T1 sequence (Q9UBN7 1-1215): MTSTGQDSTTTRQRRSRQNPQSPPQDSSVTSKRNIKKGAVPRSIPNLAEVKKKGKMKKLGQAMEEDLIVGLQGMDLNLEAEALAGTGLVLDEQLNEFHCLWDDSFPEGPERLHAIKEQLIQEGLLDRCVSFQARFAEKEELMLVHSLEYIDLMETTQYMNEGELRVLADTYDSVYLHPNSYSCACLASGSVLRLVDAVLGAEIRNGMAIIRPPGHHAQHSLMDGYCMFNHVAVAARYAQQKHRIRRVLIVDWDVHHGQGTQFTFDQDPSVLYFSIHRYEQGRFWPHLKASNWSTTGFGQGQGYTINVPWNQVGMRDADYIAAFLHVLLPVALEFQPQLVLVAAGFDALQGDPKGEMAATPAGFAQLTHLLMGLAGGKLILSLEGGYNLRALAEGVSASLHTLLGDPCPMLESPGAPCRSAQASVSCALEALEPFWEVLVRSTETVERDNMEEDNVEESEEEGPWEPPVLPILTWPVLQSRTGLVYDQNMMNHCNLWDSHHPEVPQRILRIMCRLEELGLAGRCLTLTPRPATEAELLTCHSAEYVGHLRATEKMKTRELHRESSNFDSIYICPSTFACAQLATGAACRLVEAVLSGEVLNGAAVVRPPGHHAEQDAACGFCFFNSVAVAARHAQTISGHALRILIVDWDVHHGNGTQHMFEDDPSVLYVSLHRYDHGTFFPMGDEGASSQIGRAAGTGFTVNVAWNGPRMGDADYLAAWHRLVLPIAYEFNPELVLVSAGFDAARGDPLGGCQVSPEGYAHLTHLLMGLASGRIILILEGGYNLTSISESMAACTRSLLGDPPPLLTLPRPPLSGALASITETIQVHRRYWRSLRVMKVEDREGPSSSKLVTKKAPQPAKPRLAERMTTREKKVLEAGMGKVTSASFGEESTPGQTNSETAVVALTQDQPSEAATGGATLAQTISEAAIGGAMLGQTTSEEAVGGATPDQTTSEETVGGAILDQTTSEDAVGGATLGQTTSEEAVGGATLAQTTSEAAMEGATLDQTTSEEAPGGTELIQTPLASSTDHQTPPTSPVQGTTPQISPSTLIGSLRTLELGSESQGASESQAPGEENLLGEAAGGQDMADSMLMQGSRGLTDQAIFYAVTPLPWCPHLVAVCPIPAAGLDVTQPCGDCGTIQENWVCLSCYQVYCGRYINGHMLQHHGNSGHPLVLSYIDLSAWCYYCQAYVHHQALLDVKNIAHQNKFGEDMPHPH
# Procedure: FIG. 6A: Immunoblot showing degradation activity of 18x, 18a, and 18b against HDAC1, HDAC2, HDAC4, and HDAC6 (with β-actin as a control) at serial dilutions of 10 μM, 1 μM, and 100 nM.
# FIG. 6B: Immunoblot showing degradation activity of 20a, 20b, 20c, 18c, 18a, and 18b against HDAC4 and HDAC6 (with α-tubulin as a control) at dilutions of 5 nM and 1 nM.
# FIG. 6C: Immunoblot showing degradation activity of 18b and 9C against HDAC1, HDAC2, HDAC4, HDAC6, and HDAC8 (with β-actin as a control) at dilutions of 6, 19, 56, 167, and 500 nM.
# Some of these HDAC6 degraders could degrade HDAC6 selectively at low nM concentrations in MM.
# as §1
SMILES,cleavages of Caspase-3 and PARP (Caspase-3 and PARP),HDAC6 depletion (HDAC6)
"CCCCN(Cc1ccc(C(=O)NO)cc1)C(=O)Nc1ccc(OCCCCCn2cc(CNc3cccc4c3C(=O)N(C3CCC(=O)NC3=O)C4=O)nn2)cc1 (centres unmarked) [Compound 12d, 4-((1-butyl-3-(4-((5-(4-(((2-(2,6-dioxopiperidin-3-yl)-1,3-dioxoisoindolin-4-yl)amino)methyl)-1H-1,2,3-triazol-1-yl)pentyl)oxy)phenyl)ureido)methyl)-N-hydroxybenzamide]",dose-dependent,–
"CCCCN(Cc1ccc(C(=O)NO)cc1)C(=O)Nc1ccc(OCCCn2cc(CNc3ccc4c(c3)C(=O)N(C3CCC(=O)NC3=O)C4=O)nn2)cc1 (centres unmarked) [Compound 12m, 4-((1-butyl-3-(4-(3-(4-(((2-(2,6-dioxopiperidin-3-yl)-1,3-dioxoisoindolin-5-yl)amino)methyl)-1H-1,2,3-triazol-1-yl)propoxy)phenyl)ureido)methyl)-N-hydroxybenzamide]",–,completely depleted

# — patent US11059815B2, “Synthesis of small molecule histone deacetylase 6 degraders, compounds formed thereby, and pharmaceutical compositions containing them” (Wisconsin Alumni Research Foundation, priority 2018, dated 2021)
